We go through one molecule from US20250382251A1, “ALDEHYDE COMPOSITION” (MITSUBISHI GAS CHEMICAL COMPANY, INC., priority 2022, published 2025).

One data set concerns Bhas42 cells. Kind of data set: Carcinogenicity prediction test (transformation test, OECD 231GD). The format is cell-based. To be noted: in vitro transformation test using Bhas42 cells, negative or positive. Here is the method:
Using the aldehyde compositions obtained in Examples and Lilial (3-(p-tert-butylphenyl)-2-methylpropanal), a transformation test (an in vitro carcinogenicity prediction test using Bhas42 cells) was performed based on OECD 231GD to determine whether the carcinogenicity was negative or positive. When the result of this test is negative, it is predicted that there is no possibility of causing carcinogenicity, and safety is high.

A short description of data set [1]: Evaluation of threshold of smell. The settings on record: diluted with dipropylene glycol, 10 to 0.001 ppm; lower limit concentration at which the smell can be identified.

Regarding `CC(C=O)Cc1ccc(C(C)(C)C)cc1` (centres unmarked) [Comparative Example 2, 3-(p-tert-butylphenyl)-2-methylpropanal], the Carcinogenicity prediction test result with Bhas42 cells was “Positive”. Also, the “Threshold of smell (ppm)” value in data set [1] turned out to be 1 ppm.
